# In patent US8883963B2 (Cadila Healthcare Limited, priority 2007, dated 2014):
# Columns and labels:
# [1] = tested on: RIN5F (Rat Insulinoma) cells; assay: In vitro glucose-dependent insulin secretion (RIN5F cell assay screening protocol); assay type: cell-based; details: 16.7 mM glucose load
# DPP IV = DPP IV (Homo sapiens, UniProt P27487); assay: Stability against DPP IV enzyme; assay type: in vitro ADME; details: 37° C.; for % degradation of peptidomimetics in 24 h when incubated with DPP-IV enzyme: 2 μM peptidomimetic; for half-life at 2 μM: DPP IV enzyme, pH 7.8, 2 μM peptidomimetic, read-out: half-life (t1/2) when incubated with DPP-IV enzyme
# DPP IV, sequence (P27487 whole entry, species assumed): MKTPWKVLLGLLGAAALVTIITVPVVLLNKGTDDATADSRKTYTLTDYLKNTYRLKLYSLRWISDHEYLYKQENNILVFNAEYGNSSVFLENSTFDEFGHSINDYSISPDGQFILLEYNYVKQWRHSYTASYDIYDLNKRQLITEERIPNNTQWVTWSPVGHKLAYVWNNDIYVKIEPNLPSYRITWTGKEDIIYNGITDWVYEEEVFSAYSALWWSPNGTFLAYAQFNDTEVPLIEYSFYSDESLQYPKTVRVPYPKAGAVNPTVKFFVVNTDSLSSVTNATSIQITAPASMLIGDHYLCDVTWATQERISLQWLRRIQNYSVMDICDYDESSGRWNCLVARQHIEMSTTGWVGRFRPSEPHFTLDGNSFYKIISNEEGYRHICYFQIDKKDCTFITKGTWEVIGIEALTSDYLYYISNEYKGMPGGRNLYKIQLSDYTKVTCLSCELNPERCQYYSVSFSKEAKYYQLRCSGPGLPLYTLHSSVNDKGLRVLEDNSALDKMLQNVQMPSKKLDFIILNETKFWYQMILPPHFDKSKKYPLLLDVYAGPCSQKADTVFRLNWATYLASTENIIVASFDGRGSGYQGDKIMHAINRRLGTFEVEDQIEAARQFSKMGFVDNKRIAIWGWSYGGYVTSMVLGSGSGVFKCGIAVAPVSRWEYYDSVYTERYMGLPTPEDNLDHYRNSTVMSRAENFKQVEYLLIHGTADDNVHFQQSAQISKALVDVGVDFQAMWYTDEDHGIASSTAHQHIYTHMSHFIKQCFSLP
# Experimental: (§1) Reactions were terminated by the addition of TFA/H2O (15 mL, 10% (v/v)). […] The column was equilibrated with TFA/H20, at a flow rate of 1 mL/min.
# [2] = Stability in simulated gastric fluid; assay type: in vitro ADME; details: 2 μM peptidomimetic, simulated gastric fluid pH 1.5, 37° C.; for half-life at 2 μM: read-out: half-life (t1/2) when incubated with simulated gastric fluid
# Experimental: as §1
# human glucagon receptor = target: T1, human glucagon receptor (Homo sapiens, UniProt P47871); assay: In vitro human glucagon antagonist activity (inhibition of cAMP production) in CHO/human glucagon R cells; assay type: cell-based; details: with saturated concentration of glucagon peptide
# T1 construct: The full-length cDNA was cloned in pcDNA3.1 (Invitrogen); expressed in transfected cells
# T1 sequence (P47871 26-477): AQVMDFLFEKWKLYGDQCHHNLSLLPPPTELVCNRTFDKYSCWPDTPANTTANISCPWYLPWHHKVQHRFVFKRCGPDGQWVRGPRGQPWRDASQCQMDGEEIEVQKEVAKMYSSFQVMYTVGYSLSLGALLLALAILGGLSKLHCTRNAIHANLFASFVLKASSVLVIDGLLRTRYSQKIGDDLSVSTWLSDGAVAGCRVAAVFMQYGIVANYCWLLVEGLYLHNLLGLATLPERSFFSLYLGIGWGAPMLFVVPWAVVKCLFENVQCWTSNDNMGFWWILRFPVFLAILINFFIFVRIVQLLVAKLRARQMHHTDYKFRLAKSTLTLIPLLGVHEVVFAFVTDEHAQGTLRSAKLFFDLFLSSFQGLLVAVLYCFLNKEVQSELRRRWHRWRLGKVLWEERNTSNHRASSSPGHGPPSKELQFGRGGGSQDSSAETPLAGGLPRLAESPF
# [3] = Stability in human plasma; assay type: in vitro ADME; details: 2 μM peptidomimetic, pooled human plasma, 37° C.; for half-life at 2 μM: pH 7.8, read-out: half-life (t1/2) when incubated with human plasma
# Experimental: as §1
# Human GLP-1 receptor = target: T2, Human GLP-1 receptor (Homo sapiens, UniProt P43220); assay: In vitro Human GLP-1 R agonist activity (cyclic AMP determination) in CHO/human GLP1R cells; assay type: cell-based
# T2 construct: The full-length cDNA was cloned in pcDNA3.1(+); expressed in transfected cells
# T2 sequence (P43220 24-463): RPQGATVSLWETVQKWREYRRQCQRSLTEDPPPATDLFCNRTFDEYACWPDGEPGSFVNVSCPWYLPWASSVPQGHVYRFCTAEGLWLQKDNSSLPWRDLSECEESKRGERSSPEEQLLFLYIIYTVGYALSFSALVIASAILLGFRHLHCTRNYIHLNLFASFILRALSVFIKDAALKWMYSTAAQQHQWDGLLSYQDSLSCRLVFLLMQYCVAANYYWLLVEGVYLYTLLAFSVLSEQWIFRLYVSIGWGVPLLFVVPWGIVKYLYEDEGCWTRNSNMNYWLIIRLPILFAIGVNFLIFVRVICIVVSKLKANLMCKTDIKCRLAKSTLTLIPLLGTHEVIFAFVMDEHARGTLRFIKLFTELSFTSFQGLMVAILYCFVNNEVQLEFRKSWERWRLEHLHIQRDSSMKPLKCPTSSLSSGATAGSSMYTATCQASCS
# [4] = Stability in simulated intestinal fluid; assay type: in vitro ADME; details: 2 μM peptidomimetic, simulated intestinal fluid pH 7.5, 37° C.; for half-life at 2 μM: read-out: half-life (t1/2) when incubated with simulated intestinal fluid
# Experimental: as §1
# [5] = Stability in liver microsomes; assay type: in vitro ADME; details: 2 μM peptidomimetic, human liver microsomes, 37° C.; for half-life at 2 μM: pH 7.8, read-out: half-life (t1/2) when incubated with liver microsomes
# Experimental: as §1
smiles,measurement,setting,value
"CCc1cc(OC)ccc1-c1ccc(CC(NC(=O)[C@H](CC(=O)O)NC(=O)[C@H](CO)NC(=O)[C@@H](NC(=O)C(C)(Cc2ccccc2F)NC(=O)[C@@H](NC(=O)CNC(=O)C(CCC#N)NC(=O)C(C)(C)NC(=O)[C@@H](N)Cc2c[nH]cn2)[C@H](C)O)[C@@H](C)O)C(=O)NC(CCCc2ccccc2F)C(N)=O)cc1 (single isomer, unassigned) [compound 112]",Insulin secretion,[1]; 0.1 nM test compd.,15.3 ± 0.19 pg/µg/h
same,Insulin secretion,[1]; 1 nM test compd.,21.2 ± 0.11 pg/µg/h
same,Insulin secretion,[1]; 10 nM test compd.,35.5 ± 0.19 pg/µg/h
same,% degradation of peptidomimetics in 24 h when incubated with DPP-IV enzyme,DPP IV,00%
same,half-life at 2 μM,DPP IV,> 24 h
same,% degradation of peptidomimetics in 24 h when incubated with simulated gastric fluid,[2],49%
same,half-life at 2 μM,[2],4 h
same,Human Glucagon receptor antagonistic activity shown as inhibition of cAMP production of Glucagon peptide,human glucagon receptor; 1 nM test compound,6 ± 0.01 pmol/ml/μg prt
same,Human Glucagon receptor antagonistic activity shown as inhibition of cAMP production of Glucagon peptide,human glucagon receptor; 10 nM test compound,5 ± 0.02 pmol/ml/μg prt
same,Human Glucagon receptor antagonistic activity shown as inhibition of cAMP production of Glucagon peptide,human glucagon receptor; 100 nM test compound,2 ± 0.13 pmol/ml/μg prt
same,Human Glucagon receptor antagonistic activity shown as inhibition of cAMP production of Glucagon peptide,human glucagon receptor; 1 μM test compound,0 pmol/ml/μg prt
same,Human Glucagon receptor antagonistic activity shown as inhibition of cAMP production of Glucagon peptide,human glucagon receptor; 10 μM test compound,0 pmol/ml/μg prt
same,% degradation of peptidomimetics in 24 h when incubated with human plasma,[3],00%
same,half-life at 2 μM,[3],> 24 h
same,"Human GLP-1 R activity (cAMP release), % activity with respect to control",Human GLP-1 receptor; 1 nM test compound,39 ± 0.10%
same,"Human GLP-1 R activity (cAMP release), % activity with respect to control",Human GLP-1 receptor; 10 nM test compound,81 ± 0.08%
same,"Human GLP-1 R activity (cAMP release), % activity with respect to control",Human GLP-1 receptor; 100 nM test compound,89 ± 0.09%
same,"Human GLP-1 R activity (cAMP release), % activity with respect to control",Human GLP-1 receptor; 1 μM test compound,96 ± 0.11%
same,"Human GLP-1 R activity (cAMP release), % activity with respect to control",Human GLP-1 receptor; 10 μM test compound,99 ± 0.16%
same,% degradation of peptidomimetics in 24 h when incubated with simulated intestinal fluid,[4],00%
same,half-life at 2 μM,[4],> 24 h
same,% degradation of peptidomimetics in 24 h when incubated with liver microsomes,[5],82%
same,half-life at 2 μM,[5],2 h
"CCc1cc(OC)ccc1-c1ccc(CC(NC(=O)[C@H](CC(=O)O)NC(=O)[C@H](CO)NC(=O)[C@@H](NC(=O)C(C)(Cc2ccccc2F)NC(=O)[C@@H](NC(=O)CNC(=O)C(CCC#N)NC(=O)C(C)(C)NC(=O)[C@@H](N)Cc2c[nH]cn2)[C@H](C)O)[C@H](C)O)C(=O)NC(CCCc2ccccc2)C(N)=O)cc1 (single isomer, unassigned) [compound 114]",Insulin secretion,[1]; 0.1 nM test compd.,16.6 ± 0.41 pg/µg/h
same,Insulin secretion,[1]; 1 nM test compd.,22.9 ± 0.32 pg/µg/h
same,Insulin secretion,[1]; 10 nM test compd.,36.6 ± 0.19 pg/µg/h
same,% degradation of peptidomimetics in 24 h when incubated with DPP-IV enzyme,DPP IV,00%
same,half-life at 2 μM,DPP IV,> 24 h
same,% degradation of peptidomimetics in 24 h when incubated with simulated gastric fluid,[2],52%
same,half-life at 2 μM,[2],4 h
same,Human Glucagon receptor antagonistic activity shown as inhibition of cAMP production of Glucagon peptide,human glucagon receptor; 1 nM test compound,4 ± 0.02 pmol/ml/μg prt
same,Human Glucagon receptor antagonistic activity shown as inhibition of cAMP production of Glucagon peptide,human glucagon receptor; 10 nM test compound,2 ± 0.15 pmol/ml/μg prt
same,Human Glucagon receptor antagonistic activity shown as inhibition of cAMP production of Glucagon peptide,human glucagon receptor; 100 nM test compound,0 pmol/ml/μg prt
same,Human Glucagon receptor antagonistic activity shown as inhibition of cAMP production of Glucagon peptide,human glucagon receptor; 1 μM test compound,0 pmol/ml/μg prt
same,Human Glucagon receptor antagonistic activity shown as inhibition of cAMP production of Glucagon peptide,human glucagon receptor; 10 μM test compound,0 pmol/ml/μg prt
same,% degradation of peptidomimetics in 24 h when incubated with human plasma,[3],00%
same,half-life at 2 μM,[3],> 24 h
same,"Human GLP-1 R activity (cAMP release), % activity with respect to control",Human GLP-1 receptor; 1 nM test compound,82 ± 0.22%
same,"Human GLP-1 R activity (cAMP release), % activity with respect to control",Human GLP-1 receptor; 10 nM test compound,87 ± 0.12%
same,"Human GLP-1 R activity (cAMP release), % activity with respect to control",Human GLP-1 receptor; 100 nM test compound,92 ± 0.14%
same,"Human GLP-1 R activity (cAMP release), % activity with respect to control",Human GLP-1 receptor; 1 μM test compound,99 ± 0.22%
same,"Human GLP-1 R activity (cAMP release), % activity with respect to control",Human GLP-1 receptor; 10 μM test compound,99 ± 0.26%
same,% degradation of peptidomimetics in 24 h when incubated with simulated intestinal fluid,[4],00%
same,half-life at 2 μM,[4],> 24 h
same,% degradation of peptidomimetics in 24 h when incubated with liver microsomes,[5],81%
same,half-life at 2 μM,[5],2 h
"CCc1cc(OC)ccc1-c1ccc(CC(NC(=O)[C@H](CC(=O)O)NC(=O)[C@H](CO)NC(=O)[C@@H](NC(=O)C(C)(Cc2ccccc2F)NC(=O)[C@@H](NC(=O)CNC(=O)C(CCC#N)NC(=O)C(C)(C)NC(=O)[C@@H](N)Cc2c[nH]cn2)[C@H](C)O)[C@H](C)O)C(=O)NC(CCCc2ccccc2F)C(N)=O)cc1 (single isomer, unassigned) [compound 116]",Insulin secretion,[1]; 0.1 nM test compd.,16.4 ± 0.12 pg/µg/h
same,Insulin secretion,[1]; 1 nM test compd.,22.7 ± 0.17 pg/µg/h
same,Insulin secretion,[1]; 10 nM test compd.,36.6 ± 0.05 pg/µg/h
same,% degradation of peptidomimetics in 24 h when incubated with DPP-IV enzyme,DPP IV,00%
same,half-life at 2 μM,DPP IV,> 24 h
same,% degradation of peptidomimetics in 24 h when incubated with simulated gastric fluid,[2],43%
same,half-life at 2 μM,[2],4 h
same,Human Glucagon receptor antagonistic activity shown as inhibition of cAMP production of Glucagon peptide,human glucagon receptor; 1 nM test compound,2 ± 0.03 pmol/ml/μg prt
same,Human Glucagon receptor antagonistic activity shown as inhibition of cAMP production of Glucagon peptide,human glucagon receptor; 10 nM test compound,0 pmol/ml/μg prt
same,Human Glucagon receptor antagonistic activity shown as inhibition of cAMP production of Glucagon peptide,human glucagon receptor; 100 nM test compound,0 pmol/ml/μg prt
same,Human Glucagon receptor antagonistic activity shown as inhibition of cAMP production of Glucagon peptide,human glucagon receptor; 1 μM test compound,0 pmol/ml/μg prt
same,Human Glucagon receptor antagonistic activity shown as inhibition of cAMP production of Glucagon peptide,human glucagon receptor; 10 μM test compound,0 pmol/ml/μg prt
same,% degradation of peptidomimetics in 24 h when incubated with human plasma,[3],00%
same,half-life at 2 μM,[3],> 24 h
same,"Human GLP-1 R activity (cAMP release), % activity with respect to control",Human GLP-1 receptor; 1 nM test compound,55 ± 0.16%
same,"Human GLP-1 R activity (cAMP release), % activity with respect to control",Human GLP-1 receptor; 10 nM test compound,88 ± 0.13%
same,"Human GLP-1 R activity (cAMP release), % activity with respect to control",Human GLP-1 receptor; 100 nM test compound,92 ± 0.11%
same,"Human GLP-1 R activity (cAMP release), % activity with respect to control",Human GLP-1 receptor; 1 μM test compound,99 ± 0.07%
same,"Human GLP-1 R activity (cAMP release), % activity with respect to control",Human GLP-1 receptor; 10 μM test compound,99 ± 0.09%
same,% degradation of peptidomimetics in 24 h when incubated with simulated intestinal fluid,[4],00%
same,half-life at 2 μM,[4],> 24 h
same,% degradation of peptidomimetics in 24 h when incubated with liver microsomes,[5],84%
same,half-life at 2 μM,[5],2 h
